Peptide text beside a SMILES is read from it.

In test [1] the target is T1, eIF4E (Homo sapiens, UniProt P06730).
T1 construct: made in house; Plasmid and cells were provided by Cyclacel Ltd., Dundee
The test is described as follows: Surface plasmon resonance Kd determination on immobilized eIF4E (Biacore T100, CM5 chip). The following applies: for Kd / binding to eIF4E compared with EE-02: SPR; for Kd: eIF4E immobilized on CM5 chip, 1:1 binding model, three separate titrations; for binding to eIF4E compared with EE-02: in words; for Fold change: KD relative to EE-2 (SPR). It counts as binding. On the procedure:
Surface Plasmon Resonance (for Structural Activity Relationship (SAR) Tables)
For stock peptide solutions, the compounds were dissolved in 100% DMSO to a concentration of 10 mM; further dilutions of the peptide stock solutions into DMSO and/or running buffer were performed immediately prior to analysis. Running buffer consisted of 10 mM Hepes pH 7.6, 0.15 M NaCl, and 0.1% Tween20. Stock/DMSO diluted peptide solutions were diluted into 1.03× running buffer to make a peptide solution with 3% DMSO final concentration. […] Surface Plasmon resonance experiments were performed on a Biacore T100 machine.
Pure eIF4E was immnobilized on a CM5 sensor chip. The CM5 chip was conditioned with a 6 s injection of 100 mM HCL, followed by a 6 s injection of 0.1% SDS and completed with a 6 s injection of 50 mM NaOH at a flow rate of 100 μl/min. Activation of the sensor chip surface was performed with a mixture of NHS (115 mg ml^−1) and EDC (750 mg ml^−1) for 7 min at 10 μl min^−1. […] The amount of eIF4E immobilized on the activated surface was controlled by altering the contact time of the protein solution and was approximately 1000 RU. After the immobilization of the protein, a 7-min injection (at 10 μl min^−1) of 1 M ethanolamine (pH 8.5) was used to quench excess active succinimide ester groups.
Six buffer blanks were first injected to equilibrate the instrument fully and then a solvent correction curve was performed followed by a further two blank injections. The solvent correction curve was setup by adding varying amount of 100% DMSO to 1.03× running buffer to generate a range of DMSO solutions (3.8%, 3.6%, 3.4%, 3.2%, 3%, 2.85%, 2.7% and 2.5% respectively). Using a flow rate of 50 μl/min, compounds were injected for 60 s and dissociation was monitored for 180 s. The data collection rate was 10 Hz. Kds were determined using the BiaEvaluation software (Biacore) and calculated from both the response of the eIF4E coated CM5 chips at equilibrium and also kinetically from the dissociation and association phase data for each of the peptides. Both the equilibrium and kinetic data were fitted to 1:1 binding models. Each individual peptide Kd was determined from three separate titrations. Within each titration at least two concentration points were duplicated to ensure stability and robustness of the chip surface.
Kd were determined using surface plasmon resonance (SPR) as described in Methods.

Test [2] has as its target T1, eIF4E. The experiment in a line: Tryptophan quenching experiments. It counts as binding. The settings on record: 1 μM eIF4E, 0.01-20 μM titrant, excitation 290 nm, emission 355 nm; FIG. 2. On the procedure: Tryptophan Quenching Experiments
Tryptophan quenching experiments were performed using an EnVision® multiplate reader with black matte 96-well plates. […] Concentrations tested ranged from 0.01-20 μM. Samples were excited with UV light at 290 nm to minimise contribution from tyrosine fluorescence. Tryptophan was measured at an emission wavelength of 355 nm.

T1 sequence (P06730 whole entry): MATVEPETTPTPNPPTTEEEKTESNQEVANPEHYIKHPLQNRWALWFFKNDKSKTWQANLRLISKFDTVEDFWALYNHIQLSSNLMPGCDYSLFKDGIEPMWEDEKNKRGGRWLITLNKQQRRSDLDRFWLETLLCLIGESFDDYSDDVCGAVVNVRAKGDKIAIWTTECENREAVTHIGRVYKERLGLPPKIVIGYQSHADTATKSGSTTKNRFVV

Regarding `CSCC[C@@H]1NC(=O)[C@H](CCC(=O)O)NC(=O)[C@@H](NC(=O)[C@H](C)N)CSSC[C@@H](C(=O)NCC(N)=O)NC(=O)[C@H](CC(=O)O)NC(=O)[C@H](CCC(N)=O)NC(=O)[C@H](Cc2ccccc2)NC(=O)[C@H](Cc2ccccc2)NC(=O)[C@H](C)NC1=O` [EE-2C] (HELM PEPTIDE1{A.C.E.M.A.F.F.Q.D.C.G.[am]}$PEPTIDE1,PEPTIDE1,2:R3-10:R3$$$V2.0; bridges inferred), in test [1], the Kd came out at 32 µM.
For `CSCC[C@@H]1NC(=O)[C@H](CCC(=O)O)NC(=O)[C@@H](NC(=O)[C@H](C)N)CSSC[C@@H](C(=O)NCC(N)=O)NC(=O)[C@H](CC(=O)O)NC(=O)[C@H](CCC(N)=O)NC(=O)[C@H](C)NC(=O)[C@H](Cc2ccccc2)NC(=O)CNC1=O` [EE-2E] (HELM PEPTIDE1{A.C.E.M.G.F.A.Q.D.C.G.[am]}$PEPTIDE1,PEPTIDE1,2:R3-10:R3$$$V2.0), the Kd in test [1] was more than 50 µM.
In the case of `CSCC[C@@H]1NC(=O)[C@H](CCC(=O)O)NC(=O)[C@@H](NC(=O)[C@H](C)N)CSSC[C@@H](C(=O)NCC(N)=O)NC(=O)[C@H](CC(=O)O)NC(=O)[C@H](CCC(N)=O)NC(=O)[C@H](Cc2ccccc2)NC(=O)[C@H](Cc2ccc(O)cc2)NC(=O)CNC1=O` [EE-30] (HELM PEPTIDE1{A.C.E.M.G.Y.F.Q.D.C.G.[am]}$PEPTIDE1,PEPTIDE1,2:R3-10:R3$$$V2.0), the “binding to eIF4E compared with EE-02” value in test [1] is listed as “bound more tightly than EE-02”.
Compound `CSCC[C@@H]1NC(=O)[C@H](CCC(=O)O)NC(=O)[C@@H](NC(=O)[C@H](C)N)CSSC[C@@H](C(=O)NCC(N)=O)NC(=O)[C@H](CC(=O)O)NC(=O)[C@H](CCC(N)=O)NC(=O)[C@H](Cc2ccccc2)NC(=O)[C@H](Cc2ccccc2)NC(=O)CCNC1=O` [EE-27] (HELM PEPTIDE1{A.C.E.M.[bAla].F.F.Q.D.C.G.[am]}$PEPTIDE1,PEPTIDE1,2:R3-10:R3$$$V2.0) showed a Kd in test [1] of more than 50 µM.
Take `CSCC[C@@H]1NC(=O)[C@H](CCC(=O)O)NC(=O)[C@@H](NC(=O)[C@H](C)N)CSSC[C@@H](C(=O)NCC(N)=O)NC(=O)[C@H](CC(=O)O)NC(=O)[C@H](CCC(N)=O)NC(=O)[C@H](Cc2ccc(O)cc2)NC(=O)[C@H](Cc2ccccc2)NC(=O)CNC1=O` [EE-35] (HELM PEPTIDE1{A.C.E.M.G.F.Y.Q.D.C.G.[am]}$PEPTIDE1,PEPTIDE1,2:R3-10:R3$$$V2.0): in test [1], the “binding to eIF4E compared with EE-02” value is recorded as “bound more tightly than EE-02”.
With `CSCC[C@@H]1NC(=O)[C@H](CCC(=O)O)NC(=O)[C@@H](NC(=O)[C@H](C)N)CSSC[C@@H](C(=O)NCC(N)=O)NC(=O)[C@H](CC(=O)O)NC(=O)[C@H](CCC(N)=O)NC(=O)[C@H](CC(C)C)NC(=O)[C@H](Cc2ccccc2)NC(=O)CNC1=O` [EE-34] (HELM PEPTIDE1{A.C.E.M.G.F.L.Q.D.C.G.[am]}$PEPTIDE1,PEPTIDE1,2:R3-10:R3$$$V2.0), the Kd in test [1] is more than 50 µM.
As for “KKRYSRDQLVAL (Synthetic peptide PHAGESOL) [reference compound]”, the “tryptophan quenching of eIF4E” value in test [2] is given as “significantly lower amounts of tryptophan quenching”.
In test [1], `CSCC[C@@H]1NC(=O)[C@H](CCC(=O)O)NC(=O)[C@@H](NC(=O)[C@H](C)NC(C)=O)CSSC[C@@H](C(=O)NCC(N)=O)NC(=O)[C@H](CC(=O)O)NC(=O)[C@H](CCC(N)=O)NC(=O)[C@H](Cc2ccccc2)NC(=O)[C@H](Cc2ccccc2)NC(=O)CNC1=O` [EE-11] returned a Fold change of 4.9 and a Kd of 1 µM.
As for `CSCC[C@@H]1NC(=O)[C@H](CCC(=O)O)NC(=O)[C@@H](NC(=O)[C@H](C)N)CSSC[C@@H](C(=O)NCC(N)=O)NC(=O)[C@H](CC(=O)O)NC(=O)[C@H](CCC(N)=O)NC(=O)[C@H](Cc2ccccc2)NC(=O)[C@H](CC(C)C)NC(=O)CNC1=O` [EE-33] (HELM PEPTIDE1{A.C.E.M.G.L.F.Q.D.C.G.[am]}$PEPTIDE1,PEPTIDE1,2:R3-10:R3$$$V2.0), the dissociation constant (Kd) in test [1] was more than 50 µM.
For `C[C@H](N)C(=O)N[C@H]1CSSC[C@@H](C(=O)NCC(N)=O)NC(=O)[C@H](CC(=O)O)NC(=O)[C@H](CCC(N)=O)NC(=O)[C@H](Cc2ccccc2)NC(=O)[C@H](Cc2ccccc2)NC(=O)CNC(=O)[C@H](C)NC(=O)[C@H](CCC(=O)O)NC1=O` [EE-2B] (HELM PEPTIDE1{A.C.E.A.G.F.F.Q.D.C.G.[am]}$PEPTIDE1,PEPTIDE1,2:R3-10:R3$$$V2.0), in test [1], the Kd was more than 50 µM.
`CSCC[C@@H]1NC(=O)[C@H](CCC(=O)O)NC(=O)[C@@H](NC(=O)[C@H](C)N)CSSC[C@@H](C(=O)NCC(N)=O)NC(=O)[C@H](CC(=O)O)NC(=O)[C@H](CCCCN)NC(=O)[C@H](Cc2ccccc2)NC(=O)[C@H](Cc2ccccc2)NC(=O)CNC1=O` [EE-39] (HELM PEPTIDE1{A.C.E.M.G.F.F.K.D.C.G.[am]}$PEPTIDE1,PEPTIDE1,2:R3-10:R3$$$V2.0) displayed a Fold change in test [1] of 0.5.
Regarding `CSCC[C@@H]1NC(=O)[C@H](CCC(=O)O)NC(=O)[C@@H](NC(=O)[C@H](C)N)CSSC[C@@H](C(=O)NCC(N)=O)NC(=O)[C@H](CC(=O)O)NC(=O)[C@H](CCC(N)=O)NC(=O)[C@H](CC(C)C)NC(=O)[C@H](CC(C)C)NC(=O)CNC1=O` [EE-38] (HELM PEPTIDE1{A.C.E.M.G.L.L.Q.D.C.G.[am]}$PEPTIDE1,PEPTIDE1,2:R3-10:R3$$$V2.0), the Kd in test [1] was more than 50 µM.
In turn, `CSCC[C@@H]1NC(=O)[C@H](CCC(=O)O)NC(=O)[C@@H](N)CSSC[C@@H](C(N)=O)NC(=O)[C@H](CC(=O)O)NC(=O)[C@H](C)NC(=O)[C@H](Cc2ccccc2)NC(=O)[C@H](Cc2ccccc2)NC(=O)CNC1=O` [EE-44] (HELM PEPTIDE1{C.E.M.G.F.F.A.D.C.[am]}$PEPTIDE1,PEPTIDE1,1:R3-9:R3$$$V2.0) yielded a Fold change in test [1] of 0.4.
As to `CSCC[C@@H]1NC(=O)[C@H](C)NC(=O)[C@@H](NC(=O)[C@H](C)N)CSSC[C@@H](C(=O)NCC(N)=O)NC(=O)[C@H](CC(=O)O)NC(=O)[C@H](CCC(N)=O)NC(=O)[C@H](Cc2ccccc2)NC(=O)[C@H](Cc2ccccc2)NC(=O)CNC1=O` [EE-2A] (HELM PEPTIDE1{A.C.A.M.G.F.F.Q.D.C.G.[am]}$PEPTIDE1,PEPTIDE1,2:R3-10:R3$$$V2.0; bridges inferred), in test [1], the affinity, expressed as Kd, was 11 µM. That is a double-digit micromolar value.
As for `CSCC[C@@H]1NC(=O)[C@H](CCC(=O)O)NC(=O)[C@@H](NC(=O)[C@H](C)N)CSSC[C@@H](C(=O)NCC(N)=O)NC(=O)[C@H](CC(=O)O)NC(=O)[C@H](CC(C)C)NC(=O)[C@H](Cc2ccccc2)NC(=O)[C@H](Cc2ccccc2)NC(=O)CNC1=O` [EE-41] (HELM PEPTIDE1{A.C.E.M.G.F.F.L.D.C.G.[am]}$PEPTIDE1,PEPTIDE1,2:R3-10:R3$$$V2.0), the Fold change in test [1] turned out to be 0.9.
`CSCC[C@@H]1NC(=O)[C@H](CCC(=O)O)NC(=O)[C@@H](NC(=O)[C@H](C)N)CSSC[C@@H](C(=O)NCC(N)=O)NC(=O)[C@H](CC(=O)O)NC(=O)[C@H](CCC(N)=O)NC(=O)[C@H](Cc2ccccc2)NC(=O)[C@H](Cc2ccccc2)NC(=O)[C@@H]2CCCN2C1=O` [EE-29] (HELM PEPTIDE1{A.C.E.M.P.F.F.Q.D.C.G.[am]}$PEPTIDE1,PEPTIDE1,2:R3-10:R3$$$V2.0): the equilibrium dissociation constant (Kd) in test [1] was more than 50 µM.
For `CSCC[C@@H]1NC(=O)[C@H](CCC(=O)O)NC(=O)[C@@H](NC(=O)[C@H](C)N)CSSC[C@@H](C(=O)NCC(N)=O)NC(=O)[C@H](CC(=O)O)NC(=O)CNC(=O)[C@H](Cc2ccccc2)NC(=O)[C@H](Cc2ccccc2)NC(=O)CNC1=O` [EE-40] (HELM PEPTIDE1{A.C.E.M.G.F.F.G.D.C.G.[am]}$PEPTIDE1,PEPTIDE1,2:R3-10:R3$$$V2.0), in test [1], the Fold change turned out to be 1.9 and the Kd stood at 0.4 µM.
